Test system: 254851-301-R-J1-PDC spheroids, viability % test/control
Assay: Anticancer human tumor 254851-301-R-J1-PDC patient-derived colon carcinoma cell line growth inhibition [TAK]
Conditions: spheroids with HUVEC and MSC; for IC50: curve of first compound; for viability, T/C: stronger effect = lower value
Outline: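 Spheroids of 60% malignant cells, 25% HUVEC and 15% hMSC were exposed to targeted agents combined with TAK-243 or ipatasertib. Concentrations started at or near clinical Cmax (10 microM if unknown) and descended in half-log steps.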

[1] = second compound 0.3 µM, first compound 0.0316 µM
[2] = second compound 0.3 µM, first compound 0.1 µM
[3] = second compound 0.3 µM, first compound 0.316 µM
[4] = second compound 0.3 µM, first compound 1 µM
[5] = second compound 0.3 µM, first compound 3.16 µM
[6] = second compound 0.3 µM, first compound 10 µM
[7] = second compound 0.949 µM, first compound 0.0316 µM
[8] = second compound 0.949 µM, first compound 0.1 µM
[9] = second compound 0.949 µM, first compound 0.316 µM
[10] = second compound 0.949 µM, first compound 1 µM
[11] = second compound 0.949 µM, first compound 3.16 µM
[12] = second compound 0.949 µM, first compound 10 µM
[13] = second compound 3 µM, first compound 0.0316 µM
[14] = second compound 3 µM, first compound 0.1 µM
[15] = second compound 3 µM, first compound 0.316 µM
[16] = second compound 3 µM, first compound 1 µM
[17] = second compound 3 µM, first compound 3.16 µM
[18] = second compound 3 µM, first compound 10 µM
[19] = second compound 9.49 µM, first compound 0.0316 µM
[20] = second compound 9.49 µM, first compound 0.1 µM
[21] = second compound 9.49 µM, first compound 0.316 µM
[22] = second compound 9.49 µM, first compound 1 µM
[23] = second compound 9.49 µM, first compound 3.16 µM
[24] = second compound 9.49 µM, first compound 10 µM
[25] = second compound 30 µM, first compound 0.0316 µM
[26] = second compound 30 µM, first compound 0.1 µM
[27] = second compound 30 µM, first compound 0.316 µM
[28] = second compound 30 µM, first compound 1 µM
[29] = second compound 30 µM, first compound 3.16 µM
[30] = second compound 30 µM, first compound 10 µM
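Note: spheroids exposed to drugs for seven days before viability readout.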
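Throughout, for viability, T/C: 100% = DMSO vehicle control viability.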

For `CC(C)(C)c1nc(-c2cccc(NS(=O)(=O)c3c(F)cccc3F)c2F)c(-c2ccnc(N)n2)s1` + CC(C)NCC(C(=O)N1CCN(c2ncnc3c2C(C)CC3O)CC1)c1ccc(Cl)cc1, the IC50 (second compound 0.3 µM) was over 10 µM, the IC50 (second compound 0.949 µM) was over 10 µM and the IC50 (second compound 3 µM) was over 10 µM. For the same compound, the IC50 (second compound 9.49 µM) was over 10 µM, the IC50 (second compound 30 µM) was over 10 µM and the viability, T/C [1] was 114%. For the same compound, the viability, T/C [2] was 103%, the viability, T/C [3] was 87.3% and the viability, T/C [4] was 84.8%. For the same compound, the viability, T/C [5] was 77%, the viability, T/C [6] was 72% and the viability, T/C [7] was 115%. It also gave a viability, T/C [8] of 104%, a viability, T/C [9] of 95.2% and a viability, T/C [10] of 81%. For the same compound, the viability, T/C [11] was 76%, the viability, T/C [12] was 75.4% and the viability, T/C [13] was 106%. It also gave a viability, T/C [14] of 107%, a viability, T/C [15] of 88.1% and a viability, T/C [16] of 79.4%. The viability, T/C [17] was 75.6%, the viability, T/C [18] was 63.8% and the viability, T/C [19] was 101%. It also gave a viability, T/C [20] of 105%, a viability, T/C [21] of 92.5% and a viability, T/C [22] of 78.4%. The viability, T/C [23] was 71.8%, the viability, T/C [24] was 64.7% and the viability, T/C [25] was 79%. For the same compound, the viability, T/C [26] was 81.7%, the viability, T/C [27] was 83.9% and the viability, T/C [28] was 69.1%. For the same compound, the viability, T/C [29] was 59.7% and the viability, T/C [30] was 54.6%.

Compound `CC(C)n1nc(-c2ccc3oc(N)nc3c2)c2c(N)ncnc21` + CC(C)NCC(C(=O)N1CCN(c2ncnc3c2C(C)CC3O)CC1)c1ccc(Cl)cc1 has an IC50 (second compound 0.3 µM) of 0.0419 µM, an IC50 (second compound 0.949 µM) of 0.0311 µM and an IC50 (second compound 3 µM) of 0.0444 µM. For the same compound, the IC50 (second compound 9.49 µM) was 0.0357 µM, the IC50 (second compound 30 µM) was 0.0248 µM and the viability, T/C (second compound 0.3 µM, first compound 0.000316 µM) was 119%. For the same compound, the viability, T/C (second compound 0.3 µM, first compound 0.001 µM) was 101%, the viability, T/C (second compound 0.3 µM, first compound 0.00316 µM) was 93.3% and the viability, T/C (second compound 0.3 µM, first compound 0.01 µM) was 78.4%. It also gave a viability, T/C [1] of 54.3%, a viability, T/C [2] of 32.4% and a viability, T/C (second compound 0.949 µM, first compound 0.000316 µM) of 102%. The viability, T/C (second compound 0.949 µM, first compound 0.001 µM) was 101%, the viability, T/C (second compound 0.949 µM, first compound 0.00316 µM) was 94.7% and the viability, T/C (second compound 0.949 µM, first compound 0.01 µM) was 78.3%. For the same compound, the viability, T/C [7] was 49.3%, the viability, T/C [8] was 33.6% and the viability, T/C (second compound 3 µM, first compound 0.000316 µM) was 100%. The viability, T/C (second compound 3 µM, first compound 0.001 µM) was 105%, the viability, T/C (second compound 3 µM, first compound 0.00316 µM) was 85.2% and the viability, T/C (second compound 3 µM, first compound 0.01 µM) was 72.7%. It also gave a viability, T/C [13] of 57.5%, a viability, T/C [14] of 36.2% and a viability, T/C (second compound 9.49 µM, first compound 0.000316 µM) of 96.6%. For the same compound, the viability, T/C (second compound 9.49 µM, first compound 0.001 µM) was 109%, the viability, T/C (second compound 9.49 µM, first compound 0.00316 µM) was 90.8% and the viability, T/C (second compound 9.49 µM, first compound 0.01 µM) was 76.6%. For the same compound, the viability, T/C [19] was 53%, the viability, T/C [20] was 31.9% and the viability, T/C (second compound 30 µM, first compound 0.000316 µM) was 88.1%. It also gave a viability, T/C (second compound 30 µM, first compound 0.001 µM) of 86.5%, a viability, T/C (second compound 30 µM, first compound 0.00316 µM) of 84.5% and a viability, T/C (second compound 30 µM, first compound 0.01 µM) of 69.6%. The viability, T/C [25] was 44.9% and the viability, T/C [26] was 31.1%.

`CCCS(=O)(=O)Nc1ccc(F)c(C(=O)c2c[nH]c3ncc(-c4ccc(Cl)cc4)cc23)c1F` + CC(C)NCC(C(=O)N1CCN(c2ncnc3c2C(C)CC3O)CC1)c1ccc(Cl)cc1 gave an IC50 (second compound 0.3 µM) of over 100 µM, an IC50 (second compound 0.949 µM) of over 100 µM and an IC50 (second compound 3 µM) of over 100 µM. For the same compound, the IC50 (second compound 9.49 µM) was over 100 µM, the IC50 (second compound 30 µM) was over 100 µM and the viability, T/C [3] was 92.5%. For the same compound, the viability, T/C [4] was 90.3%, the viability, T/C [5] was 63.9% and the viability, T/C [6] was 68.4%. The viability, T/C (second compound 0.3 µM, first compound 31.6 µM) was 38.1%, the viability, T/C (second compound 0.3 µM, first compound 100 µM) was 85.7% and the viability, T/C [9] was 99.2%. The viability, T/C [10] was 95.1%, the viability, T/C [11] was 79.4% and the viability, T/C [12] was 64.8%. The viability, T/C (second compound 0.949 µM, first compound 31.6 µM) was 30.2%, the viability, T/C (second compound 0.949 µM, first compound 100 µM) was 76.8% and the viability, T/C [15] was 79.7%. It also gave a viability, T/C [16] of 88.8%, a viability, T/C [17] of 70.3% and a viability, T/C [18] of 67.9%. The viability, T/C (second compound 3 µM, first compound 31.6 µM) was 20.2%, the viability, T/C (second compound 3 µM, first compound 100 µM) was 82.5% and the viability, T/C [21] was 95.3%. It also gave a viability, T/C [22] of 85.3%, a viability, T/C [23] of 71% and a viability, T/C [24] of 51.5%. The viability, T/C (second compound 9.49 µM, first compound 31.6 µM) was 52.3%, the viability, T/C (second compound 9.49 µM, first compound 100 µM) was 83% and the viability, T/C [27] was 91.5%. The viability, T/C [28] was 92.8%, the viability, T/C [29] was 82.6% and the viability, T/C [30] was 51.8%. For the same compound, the viability, T/C (second compound 30 µM, first compound 31.6 µM) was 26.7% and the viability, T/C (second compound 30 µM, first compound 100 µM) was 80.7%.

Source: PubChem BioAssay AID2060358 (Molecular Pharmacology Branch, DTP, NCI, 2025)
